Columns and labels:
[1] = target: T1, E. coli-expressed ΔK280 tauRD protein (Homo sapiens, UniProt P10636, DEL597-597); assay: Anti-ΔK280 tauRD aggregation assay (thioflavin T); type: biochemical; conditions: compounds tested 1–10 μM, 20 μM protein, 48 h, linear interpolation, read-out: EC50 for ΔK280 tauRD aggregation inhibition
T1 construct: assessed by using E. coli-expressed ΔK280 tauRD protein; made in house; host or cells: E. coli
Protocol: Thioflavin T is widely used to visualize and quantify the presence of misfolded amyloid protein aggregates in vitro [74]. The tau aggregation inhibiting potential of Congo red, LM-031 and LMDS-1 to -4 was assessed by using E. coli-expressed ΔK280 tauRD protein [28]. Briefly, purified ΔK280 tauRD protein (20 μM) was incubated with Congo red or coumarin compounds (1–10 μM) in 150 mM NaCl and 20 mM Tris-HCl pH8.0, at 37 °C with shaking for 48 h to form aggregates. Then, thioflavin T (final 5 μM; Acros Organics, Geel, Belgium) was added and incubated for 25 min at room temperature. Fluorescence intensity of samples was recorded at excitation/emission wavelengths of 420/485 nm using an FLx800 microplate reader (BioTek, Winooski, VT, USA). The half maximal effective concentration (EC50) values were calculated by using a linear interpolation method.

[2] = DPPH free radical-scavenging assay; conditions: compounds tested 10–80 μM; DPPH 100 µM; linear interpolation
Protocol: The potential free radical-scavenging activity of test compounds was assayed using stable free radical 1,1-diphenyl-2-picrylhydrazyl (DPPH) (Sigma-Aldrich). Briefly, kaempferol, LM-031 or LMDS-1 to -4 (10–80 µM) was added to DPPH (100 µM in 99% ethanol). The solution was vortexed for 15 s, left for 30 min at room temperature, the mixture was transferred to a 96-well UV-transparent microplate and the absorbance at 517 nm was measured using a Multiskan^TM GO microplate spectrophotometer (Thermo Fisher Scientific, Waltham, MA, USA). Radical-scavenging activity was calculated using the equation: 1 − (absorbance of sample/absorbance of control) × 100%, and EC50 estimated using the linear interpolation method.

[3] = test system: ΔK280 tauRD-DsRed SH-SY5Y cells; assay: Neurite outgrowth in cells infected with TRKB-specific or scrambled shRNA; type: cell-based, human; conditions: scrambled shRNA; 10 µM
Protocol: As described, ∆K280 tauRD-DsRed SH-SY5Y cells were seeded in a 24-well plate (5 × 10^4/well) with retinoic acid addition on day 1, treated with tested compounds (10 µM) and ∆K280 tauRD-DsRed expression was induced with doxycycline (2 μg/mL) on day 2. On day 8, after being fixed in 4% paraformaldehyde for 15 min, permeabilized in 0.1% Triton X-100 for 10 min and blocked in 3% bovine serum albumin (BSA) for 20 min, the cells were stained with TUBB3 (neuronal class III β-tubulin) primary antibody (1:1000; BioLegend, San Diego, CA, USA) at 4 °C overnight, followed by goat anti-rabbit Alexa Fluor® 555 secondary antibody (1:1000; Molecular probes) at room temperature for 2 h, with 4′-6-diamidino-2-phenylindole (DAPI, 0.1 µg/mL; Sigma-Aldrich) included for nuclei staining. Neuronal images were captured using the high-content analysis system as described. Neurite total length (μm), processes (primary neurite extensions projecting directly from the cell body) and branching (points at which primary neurites bifurcated) were analyzed using Neurite Outgrowth Application Module (MetaXpress; Molecular Devices). Around 5000 cells were analyzed in each of three independent experiments for each sample.
Lentiviral short hairpin RNA (shRNA) targeting TRKB (TRCN0000002243, TRCN0000002245 and TRCN0000002246) and a negative control scrambled (TRC2.Void, ASN000001) from National RNAi Core Facility, IMB/GRC, Academia Sinica, Taipei, Taiwan were applied to knock down TRKB expression in ∆K280 tauRD-DsRed SH-SY5Y cells. On day 1, cells were plated on 6-well (for protein analysis) or 24-well (for neurite outgrowth analysis) plates in the presence of retinoic acid as described. On day 2, the cells were infected with lentivirus (multiplicity of infection of 3 for each shRNA) in medium containing polybrene (8 µg/mL; Sigma-Aldrich) to increase the efficiency of viral infection. […] On day 9, the cells were collected for TRKB protein analysis or analyzed for neurite outgrowth as described.

p-JNK (T183/Y185) = assay: Immunoblot of p-JNK (T183/Y185); type: cell-based, human; conditions: 10 µM; versus 107% untreated; p > 0.05
Protocol: ∆K280 tauRD-DsRed SH-SY5Y cells were lysed in buffer containing 50 mM Tris-HCl (pH 8.0), 150 mM NaCl, 1 mM EDTA (pH 8.0), 1 mM EGTA (pH 8.0), 0.1% SDS, 0.5% sodium deoxycholate, 1% Triton X-100 and protease (Sigma-Aldrich)/phosphatase (Roche, Basel, Switzerland) inhibitor cocktails. After two sonications with an interval of 30 min on ice, cell lysates were collected by centrifugation at 14,000× g for 30 min at 4 °C. Protein concentrations were determined using a Bradford assay (Bio-Rad, Hercules, CA, USA). Protein samples (25 µg) were separated by 10–12% SDS-PAGE and transferred to polyvinylidene difluoride (PVDF) membranes (Sigma-Aldrich). […] After three washes with TBST, the immune complexes were detected using horseradish peroxidase-conjugated goat anti-mouse or goat anti-rabbit secondary IgG antibody (1:5000, GeneTex, Irvine, CA, USA) and enhanced chemiluminescence substrates luminol and peroxide (Millipore). […]

T1 sequence (P10636 with tags, fused parts or gaps DEL597-597): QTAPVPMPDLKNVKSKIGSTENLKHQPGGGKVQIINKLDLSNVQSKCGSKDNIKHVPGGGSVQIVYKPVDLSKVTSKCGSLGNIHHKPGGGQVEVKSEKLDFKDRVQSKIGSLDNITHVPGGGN

Row | Structure (SMILES) | EC50 [1] [µM] | EC50 [2] [µM] | Neurite branching [3] | p-JNK (T183/Y185) expression (p-JNK (T183/Y185))
1 | O=C(c1ccccc1)c1cc2c(O)cccc2oc1=O [LM-031, 3-benzoyl-5-hydroxychromen-2-one] | 36 | 93 | 1.05–1.07 | 
2 | CCOc1ccc2cc(C(=O)c3ccccc3)c(=O)oc2c1 [LMDS-1] | 84 | 122 | 1.05–1.07 | 93–108%
3 | O=C(c1ccccc1)c1cc2ccc(O)cc2oc1=O [LMDS-2] | 8 | 132 | 1.05–1.07 | 93–108%

Source: paper PMC9654711, “Neuroprotective Action of Coumarin Derivatives through Activation of TRKB-CREB-BDNF Pathway and Reduction of Caspase Activity in Neuronal Cells Expressing Pro-Aggregated Tau Protein” (International Journal of Molecular Sciences, 2022)
